1 substance from publication PMC4869175, “Evidence that phytochrome functions as a protein kinase in plant light signalling” (Nature Communications, 2016) can be followed below.

Holding throughout (test): Photoaffinity labelling with 8-azido-ATP (ATP-binding affinity assay)
Common to all, as to conditions: 5 μM 8-azido-ATP; labelling of WT AsphyA with 5 μM assumed as 100%

Test [1] addresses T1, D422R AsphyA mutant (full-length) (Avena sativa, UniProt P06593, D422R).
T1 construct: After preparing purified full-length AsphyA mutants; made in house; host or cells: Pichia pastoris GS115
As to the method:
(§1) Figure 4 Phosphorylation analyses of AsphyA mutants with reduced kinase activity. (a) Kinase activity assays of the AsphyA mutants. In all, 1.0 μg of GST/strep-fused PIF3 (∼0.3 μM) was added as a substrate in reaction mixtures with 1.0 μg of either full-length WT or a mutant (K411L, T418D or D422R) AsphyA protein (∼0.2 μM). (b) Protein–protein interaction analysis between PIF3 and the AsphyA kinase mutants. GST was included as a negative control. (c) ATP-binding affinity assays of AsphyA kinase mutants using photoaffinity labelling with 8-azido-ATP. 1.0 μg of full-length AsphyA protein (∼80 nM) was labelled with the indicated concentrations of 8-azido-ATP. The percentages of 8-azido-ATP labeling were obtained where the labelling of WT AsphyA with 5 μM azido-ATP was assumed as 100%. Error bars represent s.d. from three independent measurements.
(§2) To investigate ATP-binding to AsphyA proteins, photoaffinity labelling experiments were carried out using 8-N3-ATP-biotin-long chain-hydrazone (8-azido-ATP), which were purchased from Affinity Labeling Technologies, Inc. Purified phytochrome proteins (1.0 μg) were pre-incubated for 30 min on ice in 50 μl of photoaffinity labelling buffer (20 mM Tris-HCl, pH 7.0, 2 mM EDTA, 2 mM MgCl2 and 150 μM ATP), and then 8-azido-ATP was applied with indicated concentrations. […]
(§3) Supplementary Figure 15. […] Full-length wild-type and mutant AsphyA proteins were labeled with the indicated concentrations of 8-azido-ATP, and the azido-ATP-labeled proteins were detected with avidin-HRP (upper panels).
(§4) Amounts of AsphyA proteins (ca. 1.0 µg) used in these reactions are shown as loading controls in lower panels, which were analyzed using western blots with oat22 antibody.
(§5) Phosphorylation analysis of the D422R mutant of A610 (DR/A610). […] Wild-type (A610) and DR/A610 mutant proteins were labeled with the indicated concentrations of 8-azido-ATP, and the 8-azido-ATP labeled proteins were detected with avidin-HRP (upper panel).

Test [2] has as its target T2, K411L AsphyA mutant (full-length) (Avena sativa, UniProt P06593, K411L).
T2 construct: After preparing purified full-length AsphyA mutants; made in house; host or cells: Pichia pastoris GS115
As to the method: as §1, §2, §3, §4, §5

Test [3] deals with T3, T418D AsphyA mutant (full-length) (Avena sativa, UniProt P06593, T418D).
T3 construct: After preparing purified full-length AsphyA mutants; made in house; host or cells: Pichia pastoris GS115
As to the method: as §1, §2, §3, §4, §5

T3 sequence (P06593 whole entry T418D): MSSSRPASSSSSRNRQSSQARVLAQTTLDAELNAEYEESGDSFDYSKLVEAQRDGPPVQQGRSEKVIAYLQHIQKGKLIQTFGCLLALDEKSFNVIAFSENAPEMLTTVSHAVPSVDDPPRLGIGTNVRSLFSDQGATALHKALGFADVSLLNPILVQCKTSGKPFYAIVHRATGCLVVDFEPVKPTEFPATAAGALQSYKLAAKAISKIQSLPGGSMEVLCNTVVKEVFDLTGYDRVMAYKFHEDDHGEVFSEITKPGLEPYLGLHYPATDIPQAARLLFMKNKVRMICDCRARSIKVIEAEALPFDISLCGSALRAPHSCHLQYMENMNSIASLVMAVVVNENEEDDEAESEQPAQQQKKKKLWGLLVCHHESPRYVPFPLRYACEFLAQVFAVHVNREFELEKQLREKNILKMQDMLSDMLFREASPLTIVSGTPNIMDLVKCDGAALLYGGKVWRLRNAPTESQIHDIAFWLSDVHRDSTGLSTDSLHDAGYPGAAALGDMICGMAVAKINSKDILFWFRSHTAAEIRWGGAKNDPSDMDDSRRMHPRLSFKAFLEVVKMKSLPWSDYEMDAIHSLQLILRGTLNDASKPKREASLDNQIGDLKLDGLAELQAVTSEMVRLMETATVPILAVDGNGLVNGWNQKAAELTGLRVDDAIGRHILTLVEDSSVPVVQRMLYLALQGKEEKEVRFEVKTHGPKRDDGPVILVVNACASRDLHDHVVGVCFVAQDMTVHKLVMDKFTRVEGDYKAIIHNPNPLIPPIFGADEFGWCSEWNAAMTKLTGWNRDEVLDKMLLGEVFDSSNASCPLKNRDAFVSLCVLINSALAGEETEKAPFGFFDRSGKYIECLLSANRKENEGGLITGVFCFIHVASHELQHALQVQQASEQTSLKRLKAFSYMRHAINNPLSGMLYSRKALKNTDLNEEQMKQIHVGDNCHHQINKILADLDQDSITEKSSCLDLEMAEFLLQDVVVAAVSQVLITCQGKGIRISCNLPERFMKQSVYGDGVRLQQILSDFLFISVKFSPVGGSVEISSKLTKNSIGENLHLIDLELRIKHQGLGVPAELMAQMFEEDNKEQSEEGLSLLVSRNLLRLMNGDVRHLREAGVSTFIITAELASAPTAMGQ
T1 sequence (P06593 whole entry D422R): as the sequence (P06593 whole entry T418D) above, with D418T, D422R counted along it
T2 sequence (P06593 whole entry K411L): as the sequence (P06593 whole entry T418D) above, with K411L, D418T counted along it

Regarding “8-N3-ATP-biotin-long chain-hydrazone [8-azido-ATP]”, the results for the “8-azido-ATP labelling, % of the WT AsphyA” value in test [1], in test [2] and in test [3] were approximately 5%, approximately 30% and approximately 17%, respectively.
